From ChEMBL document CHEMBL2157964, “Effect of alkyl chain length on sphingosine kinase 2 selectivity” (Bioorg Med Chem Lett, 2012)

Columns and labels:
[1] = molecular target: T1, Sphingosine kinase 1 (Homo sapiens, UniProt Q9NYA1); assay: Inhibition of recombinant SphK1 expressed in baculovirus infected Sf9 cells using D-erythro-sphingosine as substrate and [32gammaP]ATP assessed as residual activity at 10 uM by scintillation counting
[2] = molecular target: T2, Sphingosine kinase 2 (Homo sapiens) (UniProt Q9NRA0); assay: Inhibition of recombinant SphK2 expressed in baculovirus infected Sf9 cells using D-erythro-sphingosine as substrate and [32gammaP]ATP assessed as residual activity at 10 uM by scintillation counting
T2 sequence (whole entry): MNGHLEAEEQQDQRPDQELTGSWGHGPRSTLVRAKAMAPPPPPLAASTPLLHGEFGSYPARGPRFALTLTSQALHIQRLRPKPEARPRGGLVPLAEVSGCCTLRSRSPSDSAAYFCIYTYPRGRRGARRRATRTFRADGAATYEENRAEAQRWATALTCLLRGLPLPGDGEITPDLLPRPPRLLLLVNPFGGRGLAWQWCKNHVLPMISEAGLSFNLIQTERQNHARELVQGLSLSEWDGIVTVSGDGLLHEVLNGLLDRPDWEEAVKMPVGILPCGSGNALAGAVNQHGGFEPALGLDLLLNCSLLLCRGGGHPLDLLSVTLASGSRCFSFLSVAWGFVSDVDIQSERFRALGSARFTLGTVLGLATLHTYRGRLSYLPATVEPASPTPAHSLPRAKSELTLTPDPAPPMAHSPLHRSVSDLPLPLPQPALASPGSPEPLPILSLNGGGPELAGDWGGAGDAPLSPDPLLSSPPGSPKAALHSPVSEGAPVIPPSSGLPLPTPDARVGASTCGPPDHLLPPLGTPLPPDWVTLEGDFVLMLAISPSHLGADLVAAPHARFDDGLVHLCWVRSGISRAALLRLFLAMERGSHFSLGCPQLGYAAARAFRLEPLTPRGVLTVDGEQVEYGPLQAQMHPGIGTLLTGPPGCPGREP

[3] = molecular target: T3, Sphingosine kinase 2 (Homo sapiens, UniProt Q9NRA0); assay: Inhibition of recombinant SphK2 expressed in baculovirus infected Sf9 cells using D-erythro-sphingosine as substrate and [32gammaP]ATP by scintillation counting
T3 sequence (Q9NRA0 whole entry): T2 sequence (whole entry)

[4] = molecular target: T1, Sphingosine kinase 1; assay: Inhibition of recombinant SphK1 expressed in baculovirus infected Sf9 cells using D-erythro-sphingosine as substrate and [32gammaP]ATP by scintillation counting
[5] = Selectivity ratio of Ki for recombinant SphK1 to Ki for recombinant SphK2
[6] = molecular target: T3, Sphingosine kinase 2; assay: Inhibition of human recombinant SphK2 using NBD-sphingosine as substrate after 2 hrs by HPLC analysis
[7] = molecular target: T3, Sphingosine kinase 2; assay: Inhibition of SphK2 using sphingosine as substrate and [32gammaP]ATP after 15 to 20 mins by Cerenkov counting analysis

T1 sequence (Q9NYA1 whole entry): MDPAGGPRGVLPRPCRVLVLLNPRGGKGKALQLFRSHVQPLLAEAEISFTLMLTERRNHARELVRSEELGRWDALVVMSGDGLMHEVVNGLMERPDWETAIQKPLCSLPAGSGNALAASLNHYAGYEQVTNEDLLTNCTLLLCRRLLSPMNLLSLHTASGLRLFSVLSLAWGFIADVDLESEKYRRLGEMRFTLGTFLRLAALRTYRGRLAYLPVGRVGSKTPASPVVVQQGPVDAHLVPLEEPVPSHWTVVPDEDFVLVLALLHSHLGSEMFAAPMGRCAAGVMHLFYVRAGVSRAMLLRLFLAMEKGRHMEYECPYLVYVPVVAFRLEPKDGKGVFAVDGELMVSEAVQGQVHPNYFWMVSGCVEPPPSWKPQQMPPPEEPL

| Activity [1] [%] | Activity [2] [%] | Ki [3] [µM] | Ki [4] [µM] | Ratio Ki [5] | Ki [6] [µM] | Ki [7] [µM] | SMILES |
| --- | --- | --- | --- | --- | --- | --- | --- |
| 79 | 40 |  |  |  |  |  | CCCCCCCCCCC(=O)c1ccc([C@H]2CC[C@H]([N+](C)(C)CCC)CC2)cc1 |
| 44 | 50 | 11 | 15 |  |  |  | CCCCCCCCCCCc1ccc([C@H]2CC[C@H]([N+](C)(C)CCC)CC2)cc1 |
| 100 | 64 | 21 | 22 |  |  |  | CCCCCCCCc1ccc([C@H]2CC[C@H]([N+](C)(C)CCC)CC2)cc1 |
| 93 | 75 |  |  |  |  |  | CCCCCCCCCC(=O)c1ccc([C@H]2CC[C@H]([N+](C)(C)CCC)CC2)cc1 |
| 88 | 41 |  |  |  |  |  | CCCCCCCCCCCC(=O)c1ccc([C@H]2CC[C@H]([N+](C)(C)CCC)CC2)cc1 |
| 76 | 38 | 7 | 36 | 3 |  |  | CCCCCCCCCCCCCCc1ccc([C@H]2CC[C@H]([N+](C)(C)CCC)CC2)cc1 |
| 67 | 26 | 43 | 35 |  |  |  | CCCCCCCCCCc1ccc([C@H]2CC[C@H]([N+](C)(C)CCC)CC2)cc1 |
| 73 | 50 |  |  |  |  |  | CCCCCCCCCCCCCC(=O)c1ccc([C@H]2CC[C@H]([N+](C)(C)CCC)CC2)cc1 |
| 98 | 98 | 43 | 35 |  |  |  | CCCCCCc1ccc([C@H]2CC[C@H]([N+](C)(C)CCC)CC2)cc1 |
| 77 | 58 |  |  |  |  |  | CCCCCCCCCCCCCCCC(=O)c1ccc([C@H]2CC[C@H]([N+](C)(C)CCC)CC2)cc1 |
| 94 | 70 | 29 | 27 |  |  |  | CCCCCCCCCCCCCCCCc1ccc([C@H]2CC[C@H]([N+](C)(C)CCC)CC2)cc1 |

The remaining lines, values behind:

| SMILES | Activity [1] [%] | Activity [2] [%] | Ki [3] [µM] | Ki [4] [µM] | Ratio Ki [5] | Ki [6] [µM] | Ki [7] [µM] |
| --- | --- | --- | --- | --- | --- | --- | --- |
| CCCCCCCC#Cc1ccc([C@H]2CC[C@H]([N+](C)(C)CCC)CC2)cc1 | 87 | 100 |  |  |  |  |  |
| CCCCCCCCCCCCc1ccc([C@H]2CC[C@H]([N+](C)(C)CCC)CC2)cc1 | 63 | 26 | 8 | 13 |  |  |  |
| CCCCCCCOc1ccc([C@H]2CC[C@H]([N+](C)(C)CCC)CC2)cc1 | 100 | 70 |  |  |  |  |  |
| CCCCCC(=O)c1ccc([C@H]2CC[C@H]([N+](C)(C)CCC)CC2)cc1 | 89 | 71 |  |  |  |  |  |
| CCCCCCCCCC#Cc1ccc([C@H]2CC[C@H]([N+](C)(C)CCC)CC2)cc1 | 62 | 28 |  |  |  |  |  |
| O=C(NCc1ccncc1)C12CC3CC(C1)CC(c1ccc(Cl)cc1)(C3)C2 [ABC-294640] |  |  |  |  |  | 9.8 |  |
| CCCCCCCCc1ccc(CC[C@@](N)(CO)COC)cc1 |  |  |  |  |  |  | 16.5 |
| CCCCCCCCC#Cc1ccc([C@H]2CC[C@H]([N+](C)(C)CCC)CC2)cc1 | 61 | 78 |  |  |  |  |  |
